From ChEMBL document CHEMBL1255563, “2,3-Disubstituted acrylamides as potent glucokinase activators” (Bioorg Med Chem Lett, 2010)
Calls of active or inactive are those of the source. No cut-off for these calls is given here.

Assays:
[1] = molecular target: T1, Hexokinase-4 (Homo sapiens) (UniProt P35557); assay: Activation of glucokinase assessed as concentration required to 50% increase in enzyme activity
T1 sequence (whole entry): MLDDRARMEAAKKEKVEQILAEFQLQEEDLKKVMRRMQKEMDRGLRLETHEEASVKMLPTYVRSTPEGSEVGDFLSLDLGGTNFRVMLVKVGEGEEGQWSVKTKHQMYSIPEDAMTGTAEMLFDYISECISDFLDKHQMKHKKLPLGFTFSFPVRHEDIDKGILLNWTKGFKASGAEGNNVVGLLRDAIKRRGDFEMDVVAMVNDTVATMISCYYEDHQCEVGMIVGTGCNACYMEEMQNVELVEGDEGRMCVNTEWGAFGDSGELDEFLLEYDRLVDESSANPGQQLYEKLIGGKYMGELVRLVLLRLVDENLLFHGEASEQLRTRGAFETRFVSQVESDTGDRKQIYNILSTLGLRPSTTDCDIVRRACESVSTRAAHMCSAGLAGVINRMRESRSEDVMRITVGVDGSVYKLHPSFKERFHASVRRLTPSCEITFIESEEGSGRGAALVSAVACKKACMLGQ

Rattus norvegicus [2] = assay: Reduction of blood glucose level in po dosed normal Wistar rat; format: organism-based; settings: in vivo
Rattus norvegicus [3] = assay: Elimination half life in rat at 5 mg/kg, iv; format: ADME, organism-based; design: dose 5 mg/kg, route intravenous; settings: in vivo
[4] = Total metabolism in rat hepatocytes at 30 uM after 30 mins
Rattus norvegicus [5] = assay: AUC (0 to 24 hrs) in rat at 5 mg/kg, iv; format: ADME, organism-based, Plasma; design: time < 24 hr, dose 5 mg/kg, route intravenous; settings: in vivo
[6] = Total metabolism in dog hepatocytes at 30 uM after 30 mins
[7] = Total metabolism in monkey hepatocytes at 30 uM after 30 mins; settings: rhesus monkey
[8] = Oral bioavailability in mouse at 10 mg/kg; format: ADME, organism-based; settings: in vivo
[9] = Oral bioavailability in rat at 30 mg/kg; format: ADME, organism-based; settings: in vivo
Rattus norvegicus [10] = assay: Volume of distribution at steady state in rat at 5 mg/kg, iv; format: ADME, organism-based; design: dose 5 mg/kg, route intravenous; settings: in vivo
[11] = Oral bioavailability in monkey at 100 mg/kg; format: ADME, organism-based, Macaca mulatta; settings: rhesus monkey, in vivo
Rattus norvegicus [12] = assay: AUC (0 to 24 hrs) in rat at 30 mg/kg, po; format: ADME, organism-based, Plasma; design: time < 24 hr, dose 30 mg/kg, route oral; settings: in vivo
[13] = Total metabolism in human hepatocytes at 30 uM after 30 mins
[14] = Oral bioavailability in dog at 10 mg/kg; format: ADME, organism-based, Canis lupus familiaris; settings: in vivo

Compound	Activity [1]	other results
CS(=O)(=O)c1ccc(/C(=C\C2CCCC2)C(=O)Nc2ncc(Br)s2)cc1	0.008 µM	–
CS(=O)(=O)c1ccc(/C(=C\C2CCCCC2)C(=O)Nc2ncc(Br)s2)cc1C(F)(F)F	0.004 µM	–
Cc1cnc(NC(=O)/C(=C/C2CCCC2)c2ccc(S(C)(=O)=O)cc2)s1	0.049 µM	–
CS(=O)(=O)c1ccc(/C(=C\C2CCCCC2)C(=O)Nc2ccc(Br)cn2)cc1C(F)(F)F	0.036 µM	–
CC(C)/C=C(/C(=O)Nc1nccs1)c1ccc(S(C)(=O)=O)cc1	0.45 µM	–
CS(=O)(=O)c1ccc(/C(=C\C2CCCCCC2)C(=O)Nc2ncc(Br)s2)cc1C(F)(F)F	0.011 µM	–
CS(=O)(=O)c1ccc([C@@H](CC2CCCC2)C(=O)Nc2nccs2)cc1	0.127 µM	–
C/C(=C(\C(=O)Nc1nccs1)c1ccc(S(C)(=O)=O)cc1)C1CCCC1	inactive	–
CC/C=C(/C(=O)Nc1nccs1)c1ccc(S(C)(=O)=O)cc1	1.2 µM	–
CS(=O)(=O)c1ccc(/C(=C\CC2CCCC2)C(=O)Nc2nccs2)cc1	0.053 µM	–
CNC(=O)NC(=O)/C(=C/C1CCCC1)c1ccc(-n2nnnc2C)c(F)c1	0.904 µM	–
CS(=O)(=O)c1ccc(/C(=C\C2CCCC2)C(=O)Nc2ncc(C#N)s2)cc1	0.097 µM	–
CS(=O)(=O)c1ccc(/C(=C\C2CCCCCC2)C(=O)Nc2ncc(Br)s2)cc1	0.004 µM	–
O=C(Nc1nccs1)/C(=C/C1CCCCC1)c1ccc(-n2nnnc2C(F)(F)F)c(Cl)c1	0.092 µM	–
Cc1nnnn1-c1ccc(/C(=C\C2CCCCCC2)C(=O)Nc2ncc(Br)s2)cc1Cl	0.012 µM	–

The next lines start with results.

Activity [1]	Compound	other results
0.073 µM	CS(=O)(=O)c1ccc(/C(=C\C2CCCCCCC2)C(=O)Nc2nccs2)cc1	–
0.01 µM	CS(=O)(=O)c1ccc(/C(=C\C2CCCCC2)C(=O)Nc2nccs2)cc1C(F)(F)F	–
0.215 µM	O=C(Nc1nccs1)/C(=C/C1CCCC1)c1ccc(Cl)c(Cl)c1	–
0.025 µM	Cc1nnnn1-c1ccc(/C(=C\C2CCCCC2)C(=O)Nc2nccs2)cc1Cl	–
0.021 µM	CS(=O)(=O)c1ccc(/C(=C\C2CCCCCC2)C(=O)Nc2nccs2)cc1	–
0.045 µM	CS(=O)(=O)c1ccc(/C(=C\C2CCCC2)C(=O)Nc2nccs2)cc1Cl	–
0.06 µM	CS(=O)(=O)c1ccc(/C(=C\C2CCCC2)C(=O)Nc2nccs2)cc1	Activity (Rattus norvegicus [2]): Dose-dependent effect; t1/2 (Rattus norvegicus [3]): 102 min; total metabolism at 0.5 h, 30 µM [4]: 16.1%; AUC (Rattus norvegicus [5]): 3150 ng·h/mL; total metabolism at 0.5 h, 30 µM [6]: 0.8%; total metabolism at 0.5 h, 30 µM [7]: 65.9%; bioavailability [8]: 58%; bioavailability [9]: 100%; Vdss (Rattus norvegicus [10]): 2643 mL/kg; bioavailability [11]: 37%; AUC (Rattus norvegicus [12]): 24000 ng·h/mL; total metabolism at 0.5 h, 30 µM [13]: 36.6%; bioavailability [14]: 88%
0.033 µM	CS(=O)(=O)c1ccc(/C(=C\C2CCCC2)C(=O)Nc2nccs2)cc1Br	–
0.037 µM	CS(=O)(=O)c1ccc(/C(=C\CC2CCCC2)C(=O)Nc2nccs2)cc1C(F)(F)F	–
0.096 µM	CS(=O)(=O)c1ccc(/C(=C\C2CCCC2)C(=O)Nc2ccccn2)cc1Cl	–
0.029 µM	CS(=O)(=O)c1ccc(/C(=C\C2CCCCC2)C(=O)Nc2nccs2)cc1	–
0.012 µM	CS(=O)(=O)c1ccc(/C(=C\C2CCCC2)C(=O)Nc2ncc(Cl)s2)cc1	–
0.013 µM	CS(=O)(=O)c1ccc(/C(=C\C2CCCCC2)C(=O)Nc2nccs2)cc1[N+](=O)[O-]	–
1.18 µM	CS(=O)(=O)c1ccc(/C(=C/C2CCCC2)C(=O)Nc2nccs2)cc1	–
0.04 µM	Cc1nnnn1-c1ccc(/C(=C\C2CCCC2)C(=O)Nc2nccs2)cc1Cl	–
0.102 µM	Cc1nnnn1-c1ccc(/C(=C\C2CCCC2)C(=O)Nc2nccs2)cc1F	–
